# From patent US12617807B2, “Long lasting opioid reversal using hydrogen peroxide-induced release in blood” (University of Cincinnati, priority 2021, dated 2026)
# How the values were obtained:
# renarcotization = test: simulated renarcotization, supplemental opioid dose after rescue; conditions: for survival (rescue rate) after initial opioid overdose: initial overdose 400 mg/kg
# Procedure: Experiments were conducted to examine the effect of the prodrug of the present invention in a simulated renarcotization situation.
# [1] = test system: opioid-induced respiratory failure and death; test: rescue of mice from lethal dose of morphine (survival); assay type: in vivo
# Procedure: Experiments were conducted to determine if NPD-2 can rescue a mouse from opioid-induced respiratory failure and death. Mice were administered a lethal dose of morphine by injection intraperitoneally (IP, 400 mg/kg). […] A survival percentage was calculated and graphed.
# [2] = max solubility in 1×PBS, 20% PEG400; assay type: physicochemical; conditions: 1×PBS with 20% PEG400, aqueous with cosolvent or surfactant or cyclodextrin
# [3] = test system: 4-NHE (marker of ROS damage); test: ROS changes in blood of mice, ELISA for 4-NHE; conditions: for effect on ROS levels: injected together with morphine
# From the text: This was accomplished using an ELISA assay for 4-NHE that is a marker of ROS damage. See FIG. 9A for an illustration of the process. After a short period, serum was collected and quantification of 4-NHE against spiked blood standards was accomplished using an appropriate antibody.
# [4] = naloxone in serum of injected mice by LCMS; assay type: in vivo
# Procedure: After 30 minutes the mice were sacrificed. Blood was harvested and allowed to coagulate. Serum was harvested. A small amount of naloxone-D5 was spiked in, 9 vol of MeOH were added, and cooled for 30 min. After centrifugation the supernatant from each sample was dried and submitted to LCMS. […] FIG. 7 is a graph showing the results of the experiment.
# Another experiment was conducted following the methodology of Example 1, except the mice were sacrificed at 2 hours instead of 30 minutes. FIG. 8 is a graph showing the results of the experiment.
# [5] = in vivo; cited from earlier work
# [6] = 2 mg/kg IP 15 min after morphine 400 mg/kg IP
# [7] = 4 mg/kg IP 15 min after morphine 400 mg/kg IP
# [8] = 7 mg/kg IP 15 min after morphine 400 mg/kg IP
# [9] = 15 mg/kg IP 15 min after morphine 400 mg/kg IP
# [10] = 6 mg/kg IP 15 min after morphine 400 mg/kg IP
smiles,measurement,setting,value
C=CCN1CCC23c4c5ccc(OCc6ccc(B(O)O)cc6)c4O[C@@H]2C(=O)CC[C@@]3(O)C1C5 (some centres unmarked) [PS-NPD-2],survival (rescue rate) after initial opioid overdose,renarcotization; 15 mg/kg,80%
same,number of surviving animals after supplemental opioid,"renarcotization; prodrug 15 mg/kg vs naloxone 6 mg/kg, supplemental opioid dose 25 mg/kg, N=8 each group",higher number of surviving animals than naloxone
same,# dead,[1]; [6],8
same,Survival percent,[1]; [6],0%
same,Survival rate,[1]; [6],0
same,# dead,[1]; [7],1
same,Survival percent,[1]; [7],0%
same,Survival rate,[1]; [7],0
same,# dead,[1]; [8],4
same,Survival percent,[1]; [8],0%
same,Survival rate,[1]; [8],0
same,# dead,[1]; [9],1
same,Survival percent,[1]; [9],87.5%
same,Survival rate,[1]; [9],0.875
same,solubility,[2],~50 mg/mL
same,effect on ROS levels,[3],reduces the ROS levels back to saline treated levels
same,half-life,[4]; inferred from 2 hour naloxone level in mice,potentially longer half-life
same,naloxone concentration in blood/serum,"[4]; mice, 30 minutes after injection, LCMS",higher concentrations of naloxone
same,naloxone in blood compared to naloxone,"[4]; mice, 2 hours after injection, LCMS",more naloxone in mice blood compared to naloxone
"C=CCN1CC[C@]23c4c5ccc(O)c4O[C@H]2C(=O)CC[C@@]3(O)[C@H]1C5 [naloxone, reference compound]",survival (rescue rate) after initial opioid overdose,renarcotization; 6 mg/kg,80%
same,# dead,[1]; [10],1
same,Survival percent,[1]; [10],75%
same,Survival rate,[1]; [10],0.75
same,metabolic stability,[5],metabolically instable
same,effect on ROS levels,[3],reduces the ROS levels back to saline treated levels
"CN1CC[C@]23c4c5ccc(O)c4O[C@H]2[C@@H](O)C=C[C@H]3[C@H]1C5 [morphine, reference compound]",# dead,[1]; morphine 400 mg/kg IP alone,2
same,Survival percent,[1]; morphine 400 mg/kg IP alone,0%
same,Survival rate,[1]; morphine 400 mg/kg IP alone,0
same,increase of ROS (4-NHE),"[3]; mouse serum, compound alone",more than 10 fold
